From ChEMBL document CHEMBL1146264, “Estrogen receptor beta ligands: design and synthesis of new 2-phenyl-isoindole-1,3-diones” (Bioorg Med Chem Lett, 2007)
pIC50: −log10 of the molar value.

What was measured:
Estrogen receptor beta = Estrogen receptor beta (Homo sapiens, UniProt Q92731)
Description: Inhibition of human LBD of ERbeta

Homo sapiens = species: Homo sapiens; test: Selectivity for human LBD of ERbeta over human LBD of ERalpha
Estrogen receptor = molecular target: T1, Estrogen receptor (Homo sapiens, UniProt P03372)
T1 sequence (P03372 whole entry): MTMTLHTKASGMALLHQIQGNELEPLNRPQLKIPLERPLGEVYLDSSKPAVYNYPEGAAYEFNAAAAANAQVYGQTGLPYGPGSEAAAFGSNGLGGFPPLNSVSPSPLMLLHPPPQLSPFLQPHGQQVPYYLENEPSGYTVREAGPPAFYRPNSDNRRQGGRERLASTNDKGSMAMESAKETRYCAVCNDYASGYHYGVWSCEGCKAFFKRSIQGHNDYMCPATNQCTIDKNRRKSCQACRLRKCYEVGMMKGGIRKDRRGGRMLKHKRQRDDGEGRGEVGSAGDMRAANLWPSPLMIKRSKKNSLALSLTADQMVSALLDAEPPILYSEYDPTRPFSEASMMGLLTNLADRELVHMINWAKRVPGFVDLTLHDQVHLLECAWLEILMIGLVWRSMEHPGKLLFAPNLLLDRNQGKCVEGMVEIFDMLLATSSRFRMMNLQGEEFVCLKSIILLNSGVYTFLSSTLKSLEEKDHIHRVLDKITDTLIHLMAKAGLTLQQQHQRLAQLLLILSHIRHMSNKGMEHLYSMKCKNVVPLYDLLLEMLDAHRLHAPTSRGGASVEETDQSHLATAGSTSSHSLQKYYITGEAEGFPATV
Description: Inhibition of human LBD of ERalpha

Estrogen receptor beta, sequence (Q92731 whole entry, the tested form may be a part): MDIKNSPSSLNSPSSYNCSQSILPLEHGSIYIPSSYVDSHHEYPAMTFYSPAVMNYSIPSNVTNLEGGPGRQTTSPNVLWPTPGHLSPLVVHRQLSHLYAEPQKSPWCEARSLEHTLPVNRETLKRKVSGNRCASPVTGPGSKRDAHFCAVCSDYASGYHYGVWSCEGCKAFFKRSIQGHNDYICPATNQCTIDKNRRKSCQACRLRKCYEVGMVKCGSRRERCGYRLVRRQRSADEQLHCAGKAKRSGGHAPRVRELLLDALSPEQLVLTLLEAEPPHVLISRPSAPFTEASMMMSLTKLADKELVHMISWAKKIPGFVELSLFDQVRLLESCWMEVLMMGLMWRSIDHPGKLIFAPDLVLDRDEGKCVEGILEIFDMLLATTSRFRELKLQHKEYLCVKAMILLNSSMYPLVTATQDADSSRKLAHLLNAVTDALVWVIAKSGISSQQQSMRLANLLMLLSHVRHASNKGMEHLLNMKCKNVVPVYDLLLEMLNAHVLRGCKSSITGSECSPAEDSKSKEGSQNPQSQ

pIC50 (Estrogen receptor beta)	Ratio IC50 (Homo sapiens)	pIC50 (Estrogen receptor)	Compound
5.55	4	6.10	Cc1cc(O)ccc1N1C(=O)c2ccc(O)cc2C1=O
< 5.30	–	< 5.30	COc1cc(Br)c2c(c1)C(=O)N(c1ccc(O)cc1)C2=O
< 5.30	–	5.57	O=C1c2ccc(O)cc2C(=O)N1c1ccccc1
< 5.00	–	< 5.00	O=C1c2ccccc2C(=O)N1c1ccc(O)cc1
< 5.30	–	5.61	COc1ccc(N2C(=O)c3ccc(O)cc3C2=O)c(OC)c1
< 5.30	–	< 5.30	COc1ccc(N2C(=O)c3ccc(O)cc3C2=O)c([N+](=O)[O-])c1
< 5.30	–	5.48	COc1ccc(N2C(=O)c3ccc(O)cc3C2=O)cc1
< 5.30	–	5.54	O=C1c2ccc(O)cc2C(=O)N1c1cccc(O)c1
5.79	45	7.44	O=C1c2cc(O)cc(Br)c2C(=O)N1c1ccc(O)cc1
6.25	0.2	5.58	O=C1c2ccc(O)cc2C(=O)N1c1ccc(O)c2ccccc12
5.70	24	7.08	O=C1c2ccc(O)cc2C(=O)N1c1ccc(O)cc1
< 5.30	–	< 5.30	O=C1c2ccc(O)cc2C(=O)N1[C@H]1CC[C@H](O)CC1
< 5.30	–	< 5.30	O=C1c2ccc(O)cc2C(=O)N1c1cc(O)cc(O)c1
6.47	6	7.28	O=C1c2ccc(O)cc2C(=O)N1c1ccc(O)cc1F

Compound	pIC50 (Estrogen receptor beta)	Ratio IC50 (Homo sapiens)	pIC50 (Estrogen receptor)
O=C1c2ccc(O)cc2C(=O)N1c1ccc(O)cc1[N+](=O)[O-]	7.04	4	7.68
O=C1c2ccc(O)cc2C(=O)N1c1cccc2c(O)cccc12	5.55	4	6.10
